Experimental data as given in patent US20180311340A1, “NEW ADJUVANT AND VACCINE COMPOSITION CONTAINING THE SAME” (priority 2015, published 2018).
“Also recorded” adds a separate entry of the source.

Legend:
[1] = test system: Influenza A/Singapore/6/86(H1N1); assay: Immunogenicity study of influenza virosome with flavonoids; humoral response by ELISA; type: in vivo; conditions: Balb/c mice, subcutaneous, 1 μg Influenza A virosome with 1 or 10 μg adjuvant, day 0 and 21, blood after 35 days; compared to other analysed flavonoids and virosomes without adjuvant
PCSK9 antigenic peptide = assay: Immunogenicity study of PCSK9 vaccine; humoral response by ELISA; type: in vivo, mice; conditions: beta-sitosterol used along with alum; statement on Table 6
Protocol: The results are measured in ELISA units.
PCSK9 vaccine was prepared as described in WIPO publication WO 2011/027257. Here, ‘VR_9.5’ as decribed in WO 2011/027257 has been used as PCSK9 peptide for the current experiment. Other disclosed PCSK9 peptide can also be used as PCSK9 construct. The prepared PCSK9 construct was conjugated with diphtheria toxoid as an immunogenic carrier. The said preparation was used as an antigen preparation for further study. The conjugated PCSK9 antigen was formulated with alum and beta-sitosterol. […] Blood samples were collected at day 63 for the analysis of humoral response by ELISA. Humoral response analysed by ELISA is shown in below table. […] Table 6 provided here below for the results obtained by ELISA.

SMILES: CC[C@H](CC[C@@H](C)[C@H]1CC[C@H]2[C@@H]3CC=C4C[C@@H](O)CC[C@]4(C)[C@H]3CC[C@]12C)C(C)C [beta-sitosterol]
- immune response (serum titers of total IgG, IgG2a and IgG1 antibody, FIG. 1-3) [1]: higher immune response
- immune response against PCSK9 antigenic peptide (PCSK9 antigenic peptide): higher immune response; also recorded: synergistic effect
